In patent publication US20230020329A1, “Annelated 9-hydroxy-1,8-dioxo-1,3,4,8-tetrahydro-2H-pyrido[1,2-a]pyrazine-7-carboxamides as HIV integrase inhibitors, methods of preparation and application thereof” (priority 2019, published 2023):

System: HIV-1 (IIIB strain)
Assay: Anti-HIV cytoprotection assay (XTT), HIV-1 IIIB in CEM-SS cells
Type: cell-based
Settings: Human immunodeficiency virus 1, IIIB, CEM-SS, CEM-SS cell line; read-out: Inhibitory activity (EC50) against HIV-1 (IIIB strain)
Description: a) Inhibitory Activity of the Lymphocytropic Virus Strain HIV-1 (IIIB) in the CEM-SS Cell Line.
The evaluation was done by ImQuest BioSciences, Inc. (Frederick, Md., USA). CEM-SS cells [Foley G. E. et al. Continuous Culture of Human Lymphoblasts from Peripheral Blood of a Child with Acute Leukemia. Cancer 1965, 18, 522-529] obtained through the NIH AIDS Research and Reference Reagent Program (Manassas, Va., USA) were passaged in T-75 flasks prior to use cell culture medium consisting of RPMI1640 medium (Lonza; Walkersville, Md., USA) supplemented with 10% heat inactivated fetal bovine serum (Gibco; Grand Island, N.Y.), […] L-glutamine (Lonza), […] penicillin (Lonza) and […] streptomycin (Lonza) for antiviral analysis. The CEM-SS cells were kept in RPMI 140 medium supplemented with 10% heat inactivated bovine fetal serum, 2 mM glutamine, 100 U/ml penicillin, and 100 μg/ml streptomycin.
A lymphocytropic HIV-1 IIIB strain [Popovic, M. et al. Detection, isolation, and continuous production of cytopathic retroviruses (HTLV-III) from patients with AIDS and pre-AIDS. Science. 1984, 224 (4648), 497-500] was chosen for a virus to be analyzed. The virus was obtained through the NIH AIDS Research and Reference Reagents Program and grown in CEM-SS cells to produce a stock virus pool. A pre-titrated aliquot of the virus was removed from the freezer (−80° C.) and allowed to slowly thaw to room temperature in a biological safety cabinet. The virus was diluted in a tissue culture medium so that the amount of virus added in 50 μl per well was sufficient to kill 85 to 95% of the cells 6 days after infection. HIV-1 IIIB was grown and titrated in CEM-SS cells. The inhibitory effect of […] was evaluated in CEM-SS cells as described earlier [Nara, P. L. at al. Simple, rapid, quantitative, syncytium-forming microassay for the detection of human immunodeficiency virus neutralizing antibody. AIDS Res. Hum. Retroviruses 1987, 3, 283-302.] in microtiter plate anti-HIV assays to quantitatively assess the ability of a compound to inhibit HIV-induced cell death. Quantification was carried out using 2,3-bis-(2-methoxy-4-nitro-5-[…])-(2H)-tetrazolium-5-carboxanilide (XTT) tetrazolium, which is metabolized to a stained formazan product through viable […] The compounds given in Table 1 were dissolved at 10 μM in DMSO and stored at −20° C.
Test materials were evaluated using antiviral assays in triplicate in concentrations of 30 and 10 nM. The compounds shown in table 1 were dissolved at 10 μM in DMSO and stored at −20° C. […] Sixty nanomolar concentrations of each compound (2 times that of the test concentration in the well) were prepared by diluting 10 μM DMSO stock 1:100 in cell culture medium (10 μl of compound added to 990 μl of the medium) followed by 1:10 dilution (10 μl of the compound was added to 90 μl of the medium), then 6 μl was added to 994 μl of the medium; […] μl was added to a 96-well microtiter plate in triplicate to ensure efficacy and one colorimetric well. Twenty nanomolar concentrations of each compound (twice as much as the test concentration in the well) were prepared by diluting 10 μM DMSO with the original 1:100 in cell culture medium (10 μl of the compound added to 990 μl of the medium) followed by diluting […] (10 μl of the compound was added to 900 μl of the medium), then 20 μl was added to 980 μl of the medium; 100 μl was added to a 96-well microtiter plate in triplicate to ensure efficacy and one colorimetric well.
Azidothymidine (AZT) was purchased from Sigma Aldrich (USA) and evaluated as a positive control compound in an antiviral assay using a six-concentration reaction curve on each assay plate.
Test compounds were initially evaluated for HIV-1 IIIB strain in CEM-SS cells at test concentrations of 30 and 10 nM. […]

| EC50 [nM] | Structure (SMILES) |
| --- | --- |
| > 30 | C[C@H]1CO[C@@H]2Cn3cc(C(=O)NCc4nc5cc(Cl)ccc5o4)c(=O)c(O)c3C(=O)N12 [Compound 1.1.38, (3S,11aR)-6-hydroxy-3-methyl-N-[(5-chloro-1,3-benzoxazol-2-yl)methyl]-5,7-dioxo-2,3,5,7,11,11a-hexahydro[1,3]oxazolo[3,2-a]pyrido[1,2-d]pyrazine-8-carboxamide] |
| 10 to 30 | C[C@H]1CO[C@@H]2Cn3cc(C(=O)NCc4nc5cc(F)ccc5[nH]4)c(=O)c(O)c3C(=O)N12 [Compound 1.1.41, (3S,11aR)-6-hydroxy-3-methyl-N-[(5-ϕTopo-1H-benzimidazol-2-yl)methyl]-5,7-dioxo-2,3,5,7,11,11a-hexahydro[1,3]oxazolo[3,2-a]pyrido[1,2-d]pyrazine-8-carboxamide] |
| 2 to 10 | C[C@H]1CO[C@@H]2Cn3cc(C(=O)NCc4ccc5ccccc5n4)c(=O)c(O)c3C(=O)N12 [Compound 1.1.49, (3S,11aR)-6-hydroxy-3-methyl-N-(quinolin-2-ylmethyl)-5,7-dioxo-2,3,5,7,11,11a-hexahydro[1,3]oxazolo[3,2-a]pyrido[1,2-d]pyrazine-8-carboxamide] |
| ~10 | C[C@H]1CO[C@@H]2Cn3cc(C(=O)NCc4cccc5ncccc45)c(=O)c(O)c3C(=O)N12 [Compound 1.1.52, (3S,11aR)-6-hydroxy-3-methyl-N-(quinolin-5-ylmethyl)-5,7-dioxo-2,3,5,7,11,11a-hexahydro[1,3]oxazolo[3,2-a]pyrido[1,2-d]pyrazine-8-carboxamide] |
| > 30 | C[C@H]1CO[C@@H]2Cn3cc(C(=O)NCc4cn5cccnc5n4)c(=O)c(O)c3C(=O)N12 [Compound 1.1.58, (3S,11aR)-6-hydroxy-N-(imidazo[1,2-a]pyrimidin-2-ylmethyl)-3-methyl-5,7-dioxo-2,3,5,7,11,11a-hexahydro[1,3]oxazolo[3,2-a]pyrido[1,2-d]pyrazine-8-carboxamide] |
| 10 to 30 | C[C@H]1CO[C@@H]2Cn3cc(C(=O)NCc4nnc5ccc(Cl)nn45)c(=O)c(O)c3C(=O)N12 [Compound 1.1.60, (3S,11aR)-6-hydroxy-3-methyl-N-[(6-chloro[1,2,4]triazolo[4,3-b]pyridazin-3-yl)methyl]-5,7-dioxo-2,3,5,7,11,11a-hexahydro[1,3]oxazolo[3,2-a]pyrido[1,2-d]pyrazine-8-carboxamide] |

The remaining lines, values behind:

| Structure (SMILES) | EC50 [nM] |
| --- | --- |
| C[C@H]1CO[C@@H]2Cn3cc(C(=O)NCc4ccc5c(ccn5C)c4)c(=O)c(O)c3C(=O)N12 [Compound 1.1.33, (3S,11aR)-6-hydroxy-3-methyl-N-[(1-methyl-1H-indol-5-yl)methyl]-5,7-dioxo-2,3,5,7,11,11a-hexahydro[1,3]oxazolo[3,2-a]pyrido[1,2-d]pyrazine-8-carboxamide] | 10 to 30 |
| C[C@H]1CO[C@@H]2Cn3cc(C(=O)NCc4ccc5c(c4)OCO5)c(=O)c(O)c3C(=O)N12 [Compound 1.1.34, (3S,11aR)-N-(1,3-benzodioxol-5-ylmethyl)-6-hydroxy-3-methyl-5,7-dioxo-2,3,5,7,11,11a-hexahydro[1,3]oxazolo[3,2-a]pyrido[1,2-d]pyrazine-8-carboxamide] | 2 to 10 |
| C[C@H]1CO[C@@H]2Cn3cc(C(=O)NCc4cc5c(cc4Br)OCO5)c(=O)c(O)c3C(=O)N12 [Compound 1.1.35, (3S,11aR)-N-[(6-bromo-1,3-benzodioxol-5-yl)methyl]-6-hydroxy-3-methyl-5,7-dioxo-2,3,5,7,11,11a-hexahydro[1,3]oxazolo[3,2-a]pyrido[1,2-d]pyrazine-8-carboxamide] | < 2 |
| C[C@H]1CO[C@@H]2Cn3cc(C(=O)NCc4nc5ccc(Cl)cc5o4)c(=O)c(O)c3C(=O)N12 [Compound 1.1.39, (3S,11aR)-6-hydroxy-3-methyl-N-[(6-chloro-1,3-benzoxazol-2-yl)methyl]-5,7-dioxo-2,3,5,7,11,11a-hexahydro[1,3]oxazolo[3,2-a]pyrido[1,2-d]pyrazine-8-carboxamide] | 2 to 10 |
| Cc1ccc2[nH]c(CNC(=O)c3cn4c(c(O)c3=O)C(=O)N3[C@@H](C)CO[C@@H]3C4)nc2c1 [Compound 1.1.40, (3S,11aR)-6-hydroxy-3-methyl-N-[(5-methyl-1H-benzimidazol-2-yl)methyl]-5,7-dioxo-2,3,5,7,11,11a-hexahydro[1,3]oxazolo[3,2-a]pyrido[1,2-d]pyrazine-8-carboxamide] | > 30 |
| C[C@H]1CO[C@@H]2Cn3cc(C(=O)NCc4nc5ccccc5n4C)c(=O)c(O)c3C(=O)N12 [Compound 1.1.42, (3S,11aR)-6-hydroxy-3-methyl-N-[(1-methyl-benzimidazol-2-yl)methyl]-5,7-dioxo-2,3,5,7,11,11a-hexahydro[1,3]oxazolo[3,2-a]pyrido[1,2-d]pyrazine-8-carboxamide] | > 30 |
| C[C@H]1CO[C@@H]2Cn3cc(C(=O)NCc4nc5ccc(Cl)cc5n4C)c(=O)c(O)c3C(=O)N12 [Compound 1.1.43, (3S,11aR)-6-hydroxy-3-methyl-N-[(1-methyl-6-chlorobenzimidazol-2-yl)methyl]-5,7-dioxo-2,3,5,7,11,11a-hexahydro[1,3]oxazolo[3,2-a]pyrido[1,2-d]pyrazine-8-carboxamide] | > 30 |
| CC(C)n1c(CNC(=O)c2cn3c(c(O)c2=O)C(=O)N2[C@@H](C)CO[C@@H]2C3)nc2ccccc21 [Compound 1.1.44, (3S,11aR)-6-hydroxy-3-methyl-N-{[1-isopropyl-1H-benzimidazol-2-yl]methyl}-5,7-dioxo-2,3,5,7,11,11a-hexahydro[1,3]oxazolo[3,2-a]pyrido[1,2-d]pyrazine-8-carboxamide] | > 30 |
| CC(C)n1c(CNC(=O)c2cn3c(c(O)c2=O)C(=O)N2[C@@H](C)CO[C@@H]2C3)nc2ccc(Cl)cc21 [Compound 1.1.45, (3S,11aR)-6-hydroxy-3-methyl-N-[(6-chloro-1-isopropyl-1H-benzimidazol-2-yl)methyl]-5,7-dioxo-2,3,5,7,11,11a-hexahydro[1,3]oxazolo[3,2-a]pyrido[1,2-d]pyrazine-8-carboxamide] | > 30 |
| C[C@H]1CO[C@@H]2Cn3cc(C(=O)NCc4ccc5[nH]c(=O)[nH]c5c4)c(=O)c(O)c3C(=O)N12 [Compound 1.1.46, (3S,11aR)-6-hydroxy-N-[(2-oxo-2,3-dihydro-1H-benzimidazol-5-yl)methyl]-3-methyl-5,7-dioxo-2,3,5,7,11,11a-hexahydro[1,3]oxazolo[3,2-a]pyrido[1,2-d]pyrazine-8-carboxamide] | > 30 |
| C[C@H]1CO[C@@H]2Cn3cc(C(=O)NCc4cnc5ccccc5c4)c(=O)c(O)c3C(=O)N12 [Compound 1.1.50, (3S,11aR)-6-hydroxy-3-methyl-N-(quinolin-3-ylmethyl)-5,7-dioxo-2,3,5,7,11,11a-hexahydro[1,3]oxazolo[3,2-a]pyrido[1,2-d]pyrazine-8-carboxamide] | 2 to 10 |
| C[C@H]1CO[C@@H]2Cn3cc(C(=O)NCc4cnc5ccccn45)c(=O)c(O)c3C(=O)N12 [Compound 1.1.56, (3S,11aR)-6-hydroxy-N-(imidazo[1,2-a]pyridin-3-ylmethyl)-3-methyl-5,7-dioxo-2,3,5,7,11,11a-hexahydro[1,3]oxazolo[3,2-a]pyrido[1,2-d]pyrazine-8-carboxamide] | > 30 |
| C[C@H]1CO[C@@H]2Cn3cc(C(=O)NCc4cnc5cnccn45)c(=O)c(O)c3C(=O)N12 [Compound 1.1.59, (3S,11aR)-6-hydroxy-N-(imidazo[1,2-a]pyrazin-3-ylmethyl)-3-methyl-5,7-dioxo-2,3,5,7,11,11a-hexahydro[1,3]oxazolo[3,2-a]pyrido[1,2-d]pyrazine-8-carboxamide] | > 30 |
